These results are taken from patent US20240180923A1, “METHODS OF TREATING DISORDERS WITH ULK INHIBITORS” (Deciphera Pharmaceuticals, LLC, priority 2022, published 2024).

One may read the Cmax as the maximum level reached in the sampled fluid or tissue.

Data set [1] in a line: Nude mouse PK study with adagrasib and DCC-3116 treatment. The format is in vivo. The note with it: for AUC(0-t) / Cmax: female, athymic nude, mouse, plasma, po; for AUC(0-t): read-out: adagrasib AUC0-2 h (average); for Cmax: read-out: adagrasib Cmax in plasma (average). How it is done: The nude mouse PK study was performed at Attentive Science (Stilwell, KS), an AAALAC accredited facility. Food and water were provided ad libitum. […] Female athymic nude mice (n=3 per group) were dosed for 5 consecutive days. […] At 0, 0.5, and 2 h post final dose blood samples were collected from mice from each group. Blood samples were collected in K2EDTA tubes and processed into plasma, then stored at −20° C. Plasma samples were subjected to pharmacokinetic analysis using liquid chromatography coupled with tandem mass spectrometry analysis.

For data set [2], the system named is ULK. The data set can be described thus: pATG13 ELISA in GIST-T1 cells, DCC-3116 with binimetinib and/or ripretinib. The format is cell-based. Particulars: GIST-T1 cell line, FIG. 10. On the technique in general: An ELISA detects its analyte on a solid surface through an enzyme-linked reagent.
Procedure: A substrate solution for HRP was added and the absorbance was measured using a plate reader. Data was plotted in GraphPad Prism and fit to a sigmoidal dose response curve to generate IC50 values.
Data set [3] can be described thus: MiaPaca-2 xenograft PK/PD model: sotorasib plasma PK with DCC-3116. The note with it: for AUC(0-t) / Cmax: female, Envigo Nude, mouse, plasma, po, 10 mg/kg. It counts as in vivo, mouse. The procedure: The MiaPaca-2 xenograft model was performed in compliance with all the laws, regulations and guidelines of the National Institutes of Health (NIH) and with the approval of the Animal Care and Use Committee of Labcorp (Ann Arbor, MI), an AAALAC accredited facility. Food and water were provided ad libitum. […] Female Envigo Nude mice (6-7 weeks old) were inoculated subcutaneously just below the right high axilla with ten million cells in Dulbecco's Phosphate Buffered Saline with 50% Matrigel, using a 27-gauge needle and syringe. When tumor burdens reached 182 mm^3 on average on day 6, mice were randomly assigned into groups such that the mean tumor burden for all groups was within 10% of the overall mean tumor burden for the study population. […] At 2 h post final dose in the vehicle group, and 2, 6, and 10 h post final dose in the treatment groups, 3 mice from each group were sacrificed for tumor and plasma sampling. Blood samples were collected in K2EDTA tubes and processed into plasma, snap frozen in liquid nitrogen then stored at −80° C. Plasma samples were subjected to pharmacokinetic analysis using liquid chromatography coupled with tandem mass spectrometry analysis (Cayman Chemical, Ann Arbor, MI). Tumors were harvested and powdered over liquid nitrogen in covaris bags and stored at −80° C.

The mark [4] stands for this setting: 25 mg/kg, adagrasib in combination with 25 mg/kg DCC-3116 (first statement).
Setting [5] is: 25 mg/kg, adagrasib in combination with 25 mg/kg DCC-3116 (second statement).
Where [6] appears, read: 100 mg/kg, adagrasib 100 mg/kg PO QD single agent, 5 days.
Setting [7] is: 10 mg/kg sotorasib + 10 mg/kg DCC-3116.
[8] abbreviates: 10 mg/kg sotorasib + 25 mg/kg DCC-3116.
Setting [9] is: 10 mg/kg sotorasib + 100 mg/kg DCC-3116.
Setting [10] is: 10 mg/kg sotorasib as a single agent.

Consider `C=C(F)C(=O)N1CCN(c2nc(OC[C@@H]3CCCN3C)nc3c2CCN(c2cccc4cccc(Cl)c24)C3)C[C@@H]1CC#N` [adagrasib, reference compound], for which, in data set [1] (adagrasib alone versus with DCC-3116), the “differences in adagrasib Cmax and AUC0-2 h amongst groups” value was “not statistically significant”. Moreover, the AUC(0-t) was 2.97 µg·h/mL in data set [1] (setting [4]), 3.56 µg·h/mL in data set [1] (setting [5]) and 4.23 µg·h/mL in data set [1] (setting [6]). The results for the peak concentration (Cmax) in data set [1] (setting [4]), in data set [1] (setting [5]) and in data set [1] (setting [6]) were 1.88 µg/mL, 2.06 µg/mL and 2.53 µg/mL, respectively.
In the case of `Cn1cnc2c(F)c(Nc3ccc(Br)cc3F)c(C(=O)NOCCO)cc21` [binimetinib], the “effect on ULK activity” value in data set [2] is listed as “induces ULK Activity”.
With `C=CC(=O)N1CCN(c2nc(=O)n(-c3c(C)ccnc3C(C)C)c3nc(-c4c(O)cccc4F)c(F)cc23)[C@@H](C)C1` [sotorasib], the AUC(0-t) in data set [3] (setting [7]) came out at 0.344 µg·h/mL; in data set [3] (setting [8]), 0.727 µg·h/mL; in data set [3] (setting [9]), 0.385 µg·h/mL; in data set [3] (setting [10]) it was 0.963 µg·h/mL. Also, the Cmax came out at 0.076 µg/mL in data set [3] (setting [7]), 0.17 µg/mL in data set [3] (setting [8]), 0.074 µg/mL in data set [3] (setting [9]) and 0.296 µg/mL in data set [3] (setting [10]). In addition, the “differences in sotorasib Cmax and AUC0-10 h amongst groups” value in data set [3] (sotorasib alone versus with DCC-3116) is on record as “not statistically significant”.
